Reference: PMC10531311, “Anti-Inflammatory Activities of 8-Benzylaminoxanthines Showing High Adenosine A2A and Dual A1/A2A Receptor Affinity” (International Journal of Molecular Sciences, 2023)
Marks after values point to notes of the source that are not given here.

Key:
[1] = biological target: T1, human adenosine A1R (Homo sapiens, UniProt P30542); assay: Radioligand binding at human adenosine A1 receptor vs. [3H]CCPA; conditions: for inhibition at 1 µM: CHO cells, read-out: A1R vs. [³H]CCPA % Inhibition ± SEM at 1 µM; for Ki: human recombinant receptor in CHO cells, read-out: A1R vs. [³H]CCPA Ki ± SEM
T1 construct: expressed in transfected cells; host or cells: CHO cells
T1 sequence (P30542 1-326): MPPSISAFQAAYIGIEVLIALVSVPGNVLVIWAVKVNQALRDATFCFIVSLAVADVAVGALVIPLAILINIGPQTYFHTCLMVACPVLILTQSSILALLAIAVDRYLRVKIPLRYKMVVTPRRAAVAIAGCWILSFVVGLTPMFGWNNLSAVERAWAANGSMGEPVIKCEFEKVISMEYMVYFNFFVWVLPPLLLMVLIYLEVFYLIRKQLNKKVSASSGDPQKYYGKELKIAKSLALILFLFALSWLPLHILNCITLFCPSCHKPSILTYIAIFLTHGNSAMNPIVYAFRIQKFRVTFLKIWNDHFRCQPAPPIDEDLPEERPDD
Experimental: (§1) Affinities for adenosine receptors were evaluated in radioligand binding assays as previously described. Human adenosine receptors were stably expressed in CHO cells. The following radioligands were used: [^3H]2-chloro-N^6-cyclopentyladenosine ([^3H]CCPA) for A1R; [^3H]3-(3-hydroxypropyl)-7-methyl-8-(m-methoxystyryl)-1-propargylxanthine ([^3H]MSX-2) for A2AR; [^3H]8-(4-(4-(4-chlorophenyl)piperazine-1-sulfonyl)phenyl)-1-propylxanthine ([^3H]PSB-603) for A2BR; [^3H]phenyl-8-ethyl-4-methyl-(8R)-4,5,7,8-tetrahydro-1H-imidazo [2,1-i]purine-5-one ([^3H]PSB-11) for A3R. Initially, compounds were tested at a concentration of 1 µM. […] At least three independent experiments were performed. Data were analyzed using GraphPad PRISM version 5.0 or higher (Graph Pad, San Diego, CA, USA). Ki were calculated using the Cheng–Prusoff equation.

[2] = biological target: T2, human adenosine A3R (Homo sapiens, UniProt P0DMS8); assay: Radioligand binding at human adenosine A3 receptor vs. [3H]PSB-11; conditions: for inhibition at 1 µM: CHO cells, read-out: A3R vs. [H³]PSB-11 % Inhibition ± SEM at 1 µM; for Ki: human recombinant receptor in CHO cells, read-out: A3R vs. [H³]PSB-11 Ki ± SEM
T2 construct: expressed in transfected cells; host or cells: CHO cells
T2 sequence (P0DMS8 1-318): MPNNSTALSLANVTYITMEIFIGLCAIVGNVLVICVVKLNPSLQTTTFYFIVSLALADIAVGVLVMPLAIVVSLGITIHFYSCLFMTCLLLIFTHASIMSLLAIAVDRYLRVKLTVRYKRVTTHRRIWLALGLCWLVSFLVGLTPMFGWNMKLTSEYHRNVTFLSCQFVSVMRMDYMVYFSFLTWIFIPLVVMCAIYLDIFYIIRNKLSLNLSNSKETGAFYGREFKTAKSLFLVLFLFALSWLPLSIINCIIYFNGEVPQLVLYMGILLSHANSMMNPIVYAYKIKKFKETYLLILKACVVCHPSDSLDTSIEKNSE
Experimental: as §1

[3] = biological target: T3, human adenosine A2AR (Homo sapiens, UniProt P29274); assay: Radioligand binding at human adenosine A2A receptor vs. [3H]MSX-2; conditions: for Ki: human recombinant receptor in CHO cells, read-out: A2AR vs. [³H]MSX-2 Ki ± SEM; for A2AR vs. [³H]MSX-2 % Inhibition ± SEM at 1 µM: CHO cells
T3 construct: expressed in transfected cells; host or cells: CHO cells
T3 sequence (P29274 whole entry): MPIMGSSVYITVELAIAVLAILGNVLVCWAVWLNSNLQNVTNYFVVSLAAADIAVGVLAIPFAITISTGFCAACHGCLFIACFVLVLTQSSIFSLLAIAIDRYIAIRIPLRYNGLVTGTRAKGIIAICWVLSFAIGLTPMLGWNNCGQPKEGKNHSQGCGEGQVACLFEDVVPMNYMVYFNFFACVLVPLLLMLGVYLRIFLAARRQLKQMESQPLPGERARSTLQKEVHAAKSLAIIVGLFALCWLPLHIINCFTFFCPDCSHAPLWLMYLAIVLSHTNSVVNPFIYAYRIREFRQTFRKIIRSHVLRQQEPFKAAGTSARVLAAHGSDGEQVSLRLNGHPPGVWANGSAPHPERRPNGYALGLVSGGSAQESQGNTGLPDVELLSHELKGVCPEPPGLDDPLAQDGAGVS
Experimental: as §1

[4] = biological target: T4, human adenosine A2BR (Homo sapiens, UniProt P29275); assay: Radioligand binding at human adenosine A2B receptor vs. [3H]PSB-603; conditions: for inhibition at 1 µM: CHO cells, read-out: A2BR vs. [³H]PSB-603 % Inhibition ± SEM at 1 µM; for Ki: human recombinant receptor in CHO cells, read-out: A2BR vs. [³H]PSB-603 Ki ± SEM
T4 construct: expressed in transfected cells; host or cells: CHO cells
T4 sequence (P29275 1-332): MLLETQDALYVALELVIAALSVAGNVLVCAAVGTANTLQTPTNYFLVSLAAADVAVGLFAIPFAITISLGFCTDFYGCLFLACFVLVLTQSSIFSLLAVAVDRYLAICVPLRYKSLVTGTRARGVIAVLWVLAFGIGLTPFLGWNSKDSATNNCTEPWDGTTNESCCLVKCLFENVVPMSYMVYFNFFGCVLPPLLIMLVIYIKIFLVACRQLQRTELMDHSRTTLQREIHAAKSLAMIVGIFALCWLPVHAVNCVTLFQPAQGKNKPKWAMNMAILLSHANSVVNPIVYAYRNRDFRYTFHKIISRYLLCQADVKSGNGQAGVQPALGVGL
Experimental: as §1

[5] = tested on: formalin test in mice; assay: Formalin test; type: in vivo, albino Swiss mice; conditions: mice
Experimental: Injection of formalin into the dorsal surface of the hind paw of a mouse produces a biphasic nocifensive behavioral response; i.e., licking, biting, flinching or lifting of the injected paw. The acute (neurogenic) nociceptive phase lasts for the first 5 min and is followed by a period of little activity for the next 10 min. The first phase of the test is directly associated with nociceptor stimulation and the development of neurogenic inflammation. The second (late) phase occurs between 15 and 30 min after formalin injection. The second phase depends on peripheral inflammation and the central sensitization of pain. Since this phase reflects the activation of inflammatory processes, the compounds active in this phase of the experiment also have an anti-inflammatory effect. The tested compounds 19, 22 and 24, were investigated in three doses: 10, 20 and 40 mg/kg bw. ASA (acetylsalicylic acid) was used as a reference compound and administered in doses of 50, 100 and 200 mg/kg. […] The strongest effect in this assay was produced by 24. […] In addition, this anti-nociceptive and anti-inflammatory effect was approximately 13.8 times greater than that observed for the reference compound (ASA). […] ASA also attenuated statistically significant pain responses in the late phases of the formalin test. […] The in vivo experiments were carried out on male albino Swiss mice weighing 18–26 g and male Wistar rats weighing 150–180 g. The animals were housed in constant temperature facilities exposed to a 12:12 light-dark cycle and maintained on a standard pellet diet and tap water given ad libitum. The control and experimental groups consisted of 6–8 animals each. The investigated compounds were intraperitoneally (ip) administered in the form of a suspension in 0.5% methylcellulose. Control animals received the equivalent volume of solvent. All procedures were conducted according to the guidelines of ICLAS (International Council on Laboratory Animals Science) and were approved by the Local Ethics Committee of the Jagiellonian University in Kraków. The mice were pretreated with the test compound or the vehicle and were allowed to acclimate in Plexiglas observation chambers (20 × 30 × 15 cm) for 30 min before the test. Then, 20 μL of a 5% formalin solution was intraplantarly injected into the right hind paw using a 26-gauge needle. Immediately after formalin injection, the animals were individually placed into glass beakers and were observed during the next 30 min. Time (in seconds) spent on licking or biting the injected paw in selected intervals, 0–5, 15–20, 20–25 and 25–30 min, was measured in each experimental group and was an indicator of nociceptive behavior [41]. The ED50 values and their confidence limits were estimated by the method of Litchfield and Wilcoxon.

Row | SMILES | inhibition at 1 µM [1] [%] | Ki [1] [µM] | inhibition at 1 µM [2] [%] | Ki [2] [µM] | Ki [3] [µM] | inhibition at 1 µM [4] [%] | Ki [4] [µM] | melting point [°C] | A2AR vs. [³H]MSX-2 % Inhibition ± SEM at 1 µM [3] [%] | also measured
1 | CCCCn1c(=O)c2c(nc(NCc3ccccc3Cl)n2C)n(C)c1=O [compound 6, 1-Butyl-8-((2-chlorobenzyl)amino)-3,7-dimethyl-3,7-dihydro-1H-purine-2,6-dione] | 21 | > 1 | 11 | > 1 | 0.318 ± 0.141 | 32 | > 1 | 181 to 183 |  | 
2 | C#CCn1c(=O)c2c(nc(NCc3ccccc3Cl)n2C)n(C2CC2)c1=O [compound 27, 8-((2-Chlorobenzyl)amino)-3-cyclopropyl-7-methyl-1-(prop-2-yn-1-yl)-3,7-dihydro-1H-purine-2,6-dione] |  | 0.247 ± 0.043 | 16 | > 1 | 0.311 ± 0.167 | 9 | > 1 | 172 to 173 |  | 
3 | CCCCCCn1c(=O)c2c(nc(NCc3ccccc3Cl)n2C)n(C)c1=O [compound 8, 8-((2-Chlorobenzyl)amino)-1-hexyl-3,7-dimethyl-3,7-dihydro-1H-purine-2,6-dione] | 17 | > 1 | 31 | > 1 | > 1 | 13 | > 1 | 191 to 194 | 9 ± 8 | 
4 | Cn1c(NCc2ccccc2Cl)nc2c1c(=O)n(Cc1ccccc1)c(=O)n2C [compound 9] | 23 | > 1 | 24 | > 1 | 0.323 ± 0.15 | 9 | > 1 | 205 to 208 |  | 
5 | C#CCn1c(=O)c2c(nc(NCc3ccccc3F)n2C)n(C2CC2)c1=O [compound 28, 3-Cyclopropyl-8-((2-fluorobenzyl)amino)-7-methyl-1-(prop-2-yn-1-yl)-3,7-dihydro-1H-purine-2,6-dione] |  | 0.166 ± 0.065 | -2 | > 1 | 0.386 ± 0.061 | 14 | > 1 | 190 to 192 |  | 
6 | Cn1c(NCc2ccccc2Cl)nc2c1c(=O)n(Cc1ccc(Cl)c(Cl)c1)c(=O)n2C [compound 11, 8-((2-Chlorobenzyl)amino)-1-(3,4-dichlorobenzyl)-3,7-dimethyl-3,7-dihydro-1H-purine-2,6-dione] | 10 | > 1 | 40 | > 1 | > 1 | 4 | > 1 | 198 to 203 | 23 ± 7 | 
7 | C#CCn1c(=O)c2c(nc(NCc3c(F)cccc3Cl)n2C)n(C2CC2)c1=O [compound 29, 8-((2-Chloro-6-fluorobenzyl)amino)-3-cyclopropyl-7-methyl-1-(prop-2-yn-1-yl)-3,7-dihydro-1H-purine-2,6-dione] |  | 0.078 ± 0.009 | 16 | > 1 | 0.204 ± 0.038 | 16 | > 1 | 186 to 187 |  | 
8 | CC(=O)Oc1ccccc1C(=O)O [ASA, acetylsalicylic acid, reference compound] |  |  |  |  |  |  |  |  |  | ED50 ([5]; Mus musculus, II (late) phase, method of Litchfield and Wilcoxon, read-out: calculated ED50 in the formalin test): 126 mg/kg; Early Phase Inhibition (%) ([5]; 50 mg/kg): 12.4%; Late Phase Inhibition (%) ([5]; 50 mg/kg): 10.0%; Licking of the Hind Paw Early Phase (0–5 min) Mean ± SEM ([5]; 50 mg/kg): 59.8 ± 6.3 s; Licking of the Hind Paw Late Phase (15–30 min) Mean ± SEM ([5]; 50 mg/kg): 108.7 ± 13.8 s; Early Phase Inhibition (%) ([5]; 100 mg/kg): 14.3%; Late Phase Inhibition (%) ([5]; 100 mg/kg): 50.0%; Licking of the Hind Paw Early Phase (0–5 min) Mean ± SEM ([5]; 100 mg/kg): 58.5 ± 4.5 s; Licking of the Hind Paw Late Phase (15–30 min) Mean ± SEM ([5]; 100 mg/kg): 60.3 ± 9.5 ^c sec; Late Phase Inhibition (%) ([5]; 200 mg/kg): 66.3%; Licking of the Hind Paw Early Phase (0–5 min) Mean ± SEM ([5]; 200 mg/kg): 62.0 ± 8.6 s; Licking of the Hind Paw Late Phase (15–30 min) Mean ± SEM ([5]; 200 mg/kg): 40.6 ± 14.0 ^c sec
9 | CCCCCn1c(=O)c2c(nc(NCc3ccccc3Cl)n2C)n(C)c1=O [compound 7, 8-((2-Chlorobenzyl)amino)-3,7-dimethyl-1-pentyl-3,7-dihydro-1H-purine-2,6-dione] | 35 | > 1 | 13 | > 1 | > 1 | 41 | > 1 | 177 to 180 | 38 ± 4 | 
10 | Cn1c(NCc2ccccc2Cl)nc2c1c(=O)n(Cc1ccc(Cl)cc1)c(=O)n2C [compound 10, 1-(4-Chlorobenzyl)-8-((2-chlorobenzyl)amino)-3,7-dimethyl-3,7-dihydro-1H-purine-2,6-dione] | 12 | > 1 | 31 | > 1 | > 1 | 14 | > 1 | 228 to 230 |  | 
